What was measured:
huPPARα = assay: Cotransfection assay in CV-1 cells, luciferase reporter; format: cell-based, human; settings: GAL4 chimeric system, relative to PPARα agonist reference molecule
Experimental: […] binding (ABCD binding) was carried out using SPA technology with PPAR receptors. Tritium-labeled PPARα and PPARγ agonists were used as radioligands for generating displacement curves and IC50 values with compounds of the invention. Cotransfection assays were carried out in CV-1 cells. The reporter plasmid contained an acylCoA oxidase (AOX) PPRE and TK promoter upstream of the luciferase reporter cDNA. Appropriate PPARs and RXRα were constitutively expressed using plasmids containing the CMV promoter. For PPARα and […], interference by endogenous […] in CV-1 cells was an issue. In order to eliminate such interference, a GAL4 chimeric system was used in which the DNA binding domain of the transfected PPAR was replaced by that of GAL4, and the GAL4 response element was utilized in place of the AOX PPRE. Cotransfection efficacy was determined relative to PPARα agonist and […] reference molecules. Efficacies were determined by computer fit to a concentration-response curve, or in some cases at a single high concentration of agonist (10 μM). For binding or cotransfection studies with receptors other than PPARs, similar assays were carried out using appropriate ligands, receptors, reporter constructs, etc., for that particular receptor.
These studies were carried out to evaluate the ability of compounds of the invention to bind to and/or activate various nuclear transcription factors, particularly huPPARα (“hu” indicates “human”) and huPPARγ. These studies provide in vitro data concerning efficacy and selectivity of compounds of the invention. Furthermore, binding and cotransfection data for compounds of the invention were compared with corresponding data for marketed compounds that act on either huPPARα or huPPARγ.

Hu apoAI transgenic mice = assay: Evaluation of triglyceride and cholesterol levels in hu apoAI transgenic mice; format: in vivo; settings: 30 mg/kg oral gavage daily for 7 days; serum HDLc FPLC area under the curve, over mice receiving vehicle
Experimental: Five to six week old male mice, transgenic for human apoAI [C57B1/6-tgn(apoa1) 1rub, Jackson Laboratory, Bar Harbor, Me.] were housed five per cage (10″×20″8″ with aspen chip bedding) with food (Purina 5001) and water available at all times. After an acclimation period of 2 weeks, animals were individually identified by ear notches, weighed, and assigned to groups based on body weight. Beginning the following morning, mice were dosed daily by oral gavage for 7 days using a 20 gauge, 1½″ curved disposable feeding needle (Popper & Sons). Treatments were test compounds (30 mg/kg), a positive control (fenofibrate, 100 mg/kg) or vehicle [1% carboxymethylcellulose (w/v)/0.25% Tween80 (w/v); 0.2 ml/mouse]. Prior to termination on day 7, mice were weighed and dosed. Three hours after dosing, animals were anesthetized by inhalation of isoflurane (2–4%; Abbott Laboratories, Chicago, Ill.) and blood obtained via cardiac puncture (0.7–1.0 ml). Whole blood was transferred to serum separator tubes (Vacutainer SST), chilled on ice, and permitted to clot. Serum was obtained after centrifugation at 4° C. and frozen until analysis for triglycerides, total cholesterol, compound levels, and serum lipoprotein profile by fast protein liquid chromatography (FPLC) coupled to an inline detection system. After sacrifice by cervical dislocation, the liver, heart and epididymal fat pads were excised and weighed.
The animals dosed with vehicle had average triglycerides values of 60–80 mg/dl, which were reduced by the positive control fenofibrate (33–58 mg/dl with a mean reduction of 37%). The animals dosed with vehicle had average total serum cholesterol values of 140–180 mg/dl, which were increased by fenofibrate (190–280 mg/dl, with a mean elevation of 41%). […] increased the amount of HDLc (68–96 v-sec with a mean percent increase of 48%).
Glucose was measured colorimetrically using commercially purchased reagents (Sigma #315-500). According to the manufacturers, the procedures were modified from published work (McGowan, M. W., Artiss, J. D., Strandbergh, D. R. & Zak, B. Clin Chem, 20:470–5 (1974) and Keston, A. Specific colorimetric enzymatic analytical reagents for glucose. Abstract of papers 129th Meeting ACS, 31C (1956).); and depend on the release of a mole of hydrogen peroxide for each mole of analyte, coupled with a color reaction first described by Trinder (Trinder, P. Determination of glucose in blood using glucose oxidase with an alternative oxygen acceptor. Ann Clin Biochem, 6:24 (1969)). The absorbance of the dye produced is linearly related to the analyte in the sample. The assays were further modified in our laboratory for use in a 96 well format. Standards (Sigma #339-11, Sigma #16-11, and Sigma #CC0534 for glucose, triglycerides and total cholesterol, respectively), quality control plasma (Sigma # A2034), and samples (2 or 5 μl/well) were measured in duplicate using 200 μl of reagent. An additional aliquot of sample, pipetted to a third well and diluted in 200 μl water, provided a blank for each specimen. Plates were incubated at room temperature (18, 15, and 10 minutes for glucose, triglycerides and total cholesterol, respectively) on a plate shaker (DPC Micormix 5) and absorbance read at 500 nm (glucose and total cholesterol) or 540 nm (triglycerides) on a plate reader (Wallac Victor 1420). Sample absorbances were compared to a standard curve (100–800, 10–500, and 100–400 mg/dl for glucose, triglycerides and total cholesterol, respectively). Values for the quality control sample were always within the expected range and the coefficient of variation for samples was below 10%. All samples from an experiment were assayed at the same time to minimize inter-assay variability.
Serum lipoproteins were separated and cholesterol quantitated with an in-line detection system. Sample was applied to a Superose® 6 HR 10/30 size exclusion column (Amersham Pharmacia Biotech) and eluted with phosphate buffered saline-EDTA at 0.5 ml/min. […]

Cc1oc(-c2cccc(-c3ccc(F)cc3)c2)nc1CCOc1ccc(CC(C)(Oc2ccccc2)C(=O)O)cc1 (centres unmarked) [Example 4, 3-(4-{2-[2-(4′-Fluorobiphenyl-3-yl)-5-methyloxazol-4-yl]ethoxy}phenyl)-2-methyl-2-phenoxypropionic acid]
huPPARα CTF Efficacy (huPPARα): 38%
% HDLc Increase (Hu apoAI transgenic mice): 40.4%

— patent US7176224B2, “Oxazolyl-aryloxyacetic acid derivatives and their use as PPAR agonists” (Eli Lilly and Company, priority 2000, dated 2007)
